The text below walks through data of patent publication US12378224B2 (Dong-A Socio Holdings Co., Ltd., priority 2016, dated 2025).

In the experiment the target is human MER (528-end) (Homo sapiens (Human), UniProt Q12866). In words: HTRF Kinase Activity Biochemical Assay (KinEASE-TK). The settings on record: 10 uM ATP. The method, then: For the SAR (structure-activity relationship) and compound screening, HTRF (Homogeneous Time Resolved Fluorescence) kinase activity assay was employed for all MER, AXL and TYRO3 kinases using Cisbio HTRF® KinEASE™-TK kit (Cisbio, USA). The kit includes biotin-labeled TK substrate, streptavidin-XL665, Eu3+-cryptate-labeled TK antibody and HTRF® Detection buffer. There are two main steps in the kinase assay: kinase reaction and detection of phosphorylated substrate. The reaction was carried out in white low volume 384-well plate (Corning, USA) with 25 nL compound in dimethyl sulfoxide in each well. […] Then the reaction was stopped after 1 hour incubation at room temperature by adding 5 uL of HTRF® Detection buffer which also contains 0.375 nM Eu3+-cryptate-labeled TK antibody and 0.062 uM streptavidin-XL665(SA-XL665) to allow for detection of the phosphorylated peptide product. After 1 h incubation at room temperature, the fluorescence intensity was measured with Envision™ plate reader (PerkinElmer, USA). Upon excitation at 340 nm by UV, the energy from Eu3+ donor of the antibody is transferred to the FRET acceptor XL665, and […] emits light at 665 nm. The level of kinase activity was quantified by the HTRF ratio that calculated from the intensity of emission at 665 nm and emission at 620 nm (fluorescence intensity @ 665 nm/fluorescence intensity @ 620 nm×10,000). The recombinant protein of human MER (528-end) was purchased from Carnabio, Japan. The recombinant human AXL (473-end) and TYRO3 (455-end) were purchased from SignalChem, Canada.
Sequence of human MER (528-end) (Q12866 528-999 limits assumed): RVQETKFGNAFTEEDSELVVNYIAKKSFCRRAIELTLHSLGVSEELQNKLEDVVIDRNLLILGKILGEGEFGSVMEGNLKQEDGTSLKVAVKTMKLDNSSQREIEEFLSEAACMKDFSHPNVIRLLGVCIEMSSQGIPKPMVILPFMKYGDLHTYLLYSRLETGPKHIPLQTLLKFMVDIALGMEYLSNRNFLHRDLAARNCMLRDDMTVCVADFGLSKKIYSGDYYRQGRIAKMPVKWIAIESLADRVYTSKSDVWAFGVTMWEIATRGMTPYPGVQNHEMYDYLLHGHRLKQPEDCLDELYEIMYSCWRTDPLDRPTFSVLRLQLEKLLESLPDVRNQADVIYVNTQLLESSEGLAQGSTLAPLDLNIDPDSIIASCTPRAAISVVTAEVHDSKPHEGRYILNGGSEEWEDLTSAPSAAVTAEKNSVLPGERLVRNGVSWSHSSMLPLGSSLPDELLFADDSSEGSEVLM
In general terms: TR-FRET usually uses a lanthanide donor and a delayed reading to cut background.
In turn, `Cn1cc(-c2cnc(N)c(C(=O)N[C@@H]3CCN(C(=O)c4ccc(-c5cccc(Cl)c5)cc4)C3)c2)cn1` [Example 360, (R)-2-amino-N-(1-(3′-chloro-[1,1′-biphenyl]-4-carbonyl)pyrrolidin-3-yl)-5-(1-methyl-1H-pyrazol-4-yl)nicotinamide] displayed an IC50 of 10 to 100 nM.

In turn, `Cn1cc(-c2cnc(N)c(C(=O)N[C@@H]3CCN(C(=O)Nc4ccc(-c5ccc(CN)cc5)cc4)C3)c2)cn1` [Example 270, (R)-2-amino-N-(1-((4′-(aminomethyl)-[1,1′-biphenyl]-4-yl)carbamoyl)pyrrolidin-3-yl)-5-(1-methyl-1H-pyrazol-4-yl)nicotinamide] showed an IC50 above 1000 nM.

On to `CN1CCN(Cc2cccc(-c3ccc(C(=O)N4CC[C@@H](NC(=O)c5cc(-c6cnn(C)c6)cnc5N)C4)cc3)c2)CC1` [Example 388, (R)-2-amino-5-(1-methyl-1H-pyrazol-4-yl)-N-(1-(3′-((4-methylpiperazin-1-yl)methyl)-[1,1′-biphenyl]-4-carbonyl)pyrrolidin-3-yl)nicotinamide], for which the half-inhibitory concentration (IC50) lay within 100 to 1000 nM.

As to `Nc1ncc(-c2ccc(CO)cc2)cc1C(=O)N[C@@H]1CCN(Cc2ccc(Cl)cc2)C1` [Example 237, (R)-2-amino-N-(1-(4-chlorobenzyl)pyrrolidin-3-yl)-5-(4-(hydroxymethyl)phenyl)nicotinamide], the IC50 was in the range of 100 to 1000 nM.

Regarding `Cn1cc(-c2cnc(N)c(C(=O)N[C@H]3CCN(C(=O)Nc4ccccc4)C3)c2)cn1` [Example 27, (S)-2-amino-5-(1-methyl-1H-pyrazol-4-yl)-N-(1-(phenylcarbamoyl)pyrrolidin-3-yl)nicotinamide], the IC50 was above 1000 nM.

`Cn1cc(-c2cnc(N)c(C(=O)N[C@@H]3CCN(C(=S)Nc4ccc(Br)cc4)C3)c2)cn1` [Example 46, (R)-2-amino-N-(1-((4-bromophenyl)carbamothioyl)pyrrolidin-3-yl)-5-(1-methyl-1H-pyrazol-4-yl)nicotinamide]: the IC50 was above 1000 nM.

Compound “2-amino-N—((R)-1-(3-(((R)-2-(hydroxymethyl)pyrrolidin-1-yl)methyl)-[1,1′-biphenyl]-3-carbonyl)pyrrolidin-3-yl)-5-(1-methyl-1H-pyrazol-4-yl)nicotinamide [Example 462]” showed an IC50 above 1000 nM.

Compound `Cn1cc(-c2cnc(N)c(C(=O)N[C@@H]3CCN(C(=O)c4ccc(-c5ccc(OCc6ccccc6)cc5)cc4)C3)c2)cn1` [Example 372, (R)-2-amino-N-(1-(4′-(benzyloxy)-[1,1′-biphenyl]-4-carbonyl)pyrrolidin-3-yl)-5-(1-methyl-1H-pyrazol-4-yl)nicotinamide] had an IC50 above 1000 nM.

In turn, `Nc1ncc(-c2cnn(C3CCNCC3)c2)cc1C(=O)N[C@@H]1CCN(Cc2ccc([N+](=O)[O-])cc2)C1` [Example 156, (R)-2-amino-N-(1-(4-nitrobenzyl)pyrrolidin-3-yl)-5-(1-(piperidin-4-yl)-1H-pyrazol-4-yl)nicotinamide] came in with an IC50 above 1000 nM.

The compound `Cn1cc(-c2cnc(N)c(C(=O)N[C@@H]3CCN(C(=O)Oc4ccccc4)C3)c2)cn1` [Example 54, phenyl (R)-3-(2-amino-5-(1-methyl-1H-pyrazol-4-yl)nicotinamido)pyrrolidine-1-carboxylate] came in with an IC50 above 1000 nM.

As to `CSc1ccc(C(=O)N2CC[C@@H](NC(=O)c3cc(-c4cnn(C)c4)cnc3N)C2)cc1` [Example 420, (R)-2-amino-5-(1-methyl-1H-pyrazol-4-yl)-N-(1-(4-(methylthio)benzoyl)pyrrolidin-3-yl)nicotinamide], the IC50 was above 1000 nM.

`Cn1cc(-c2cnc(N)c(C(=O)N[C@@H]3CCN(C(=O)c4ccc(-c5ccccc5)cc4N)C3)c2)cn1` [Example 728, (R)-2-amino-N-(1-(3-amino-[1,1′-biphenyl]-4-carbonyl)pyrrolidin-3-yl)-5-(1-methyl-1H-pyrazol-4-yl)nicotinamide]: the IC50 fell in the range of 100 to 1000 nM.

The compound `Nc1ncc(-c2ccc(C(=O)N3CCN(CCO)CC3)cc2)cc1C(=O)N[C@@H]1CCN(C(=O)c2ccc(-c3ccccc3Cl)cc2)C1` [Example 589, (R)-2-amino-N-(1-(2′-chloro-[1,1′-biphenyl]-4-carbonyl)pyrrolidin-3-yl)-5-(4-(4-(2-hydroxyethyl)piperazine-1-carbonyl)phenyl)nicotinamide] showed an IC50 of 10 to 100 nM.

Regarding `CN1CCN(Cc2ccc(-c3cccc(NC(=S)N4CC[C@@H](NC(=O)c5cc(-c6cnn(C)c6)cnc5N)C4)c3)cc2)CC1` [Example 274, (R)-2-amino-5-(1-methyl-1H-pyrazol-4-yl)-N-(1-((4′-((4-methylpiperazin-1-yl)methyl)-[1,1′-biphenyl]-3-yl)carbamothioyl)pyrrolidin-3-yl)nicotinamide], the IC50 fell in the range of 10 to 100 nM.

Turning to `Cn1cc(-c2cnc(N)c(C(=O)N[C@@H]3CCN(C(=O)Nc4cccc(-c5cccc(N)c5)c4)C3)c2)cn1` [Example 257, (R)-2-amino-N-(1-((3′-amino-[1,1′-biphenyl]-3-yl)carbamoyl)pyrrolidin-3-yl)-5-(1-methyl-1H-pyrazol-4-yl)nicotinamide], the IC50 fell in the range of 100 to 1000 nM.

`Cn1cc(-c2cnc(N)c(C(=O)N[C@@H]3CCN(C(=O)c4cccc(-c5cccc(Cn6ccnc6)c5)c4)C3)c2)cn1` [Example 460, (R)—N-(1-(3′-((1H-imidazol-1-yl)methyl)-[1,1′-biphenyl]-3-carbonyl)pyrrolidin-3-yl)-2-amino-5-(1-methyl-1H-pyrazol-4-yl)nicotinamide] came in with an IC50 above 1000 nM.

In turn, `Cn1cc(-c2cnc(N)c(C(=O)N[C@@H]3CCN(C(=O)c4cccc5[nH]ccc45)C3)c2)cn1` [Example 504, (R)—N-(1-(1H-indole-4-carbonyl)pyrrolidin-3-yl)-2-amino-5-(1-methyl-1H-pyrazol-4-yl)nicotinamide] showed an IC50 above 1000 nM.

As to `Cn1cc(-c2cnc(N)c(C(=O)N[C@@H]3CCN(C(=O)Oc4cc(F)cc(F)c4)C3)c2)cn1` [Example 90, 3,5-difluorophenyl (R)-3-(2-amino-5-(1-methyl-1H-pyrazol-4-yl)nicotinamido)pyrrolidine-1-carboxylate], the IC50 is above 1000 nM.

With `Cn1cc(-c2cnc(N)c(C(=O)N[C@@H]3CCN(C(=O)Nc4ccccc4Cl)C3)c2)cn1` [Example 21, (R)-2-amino-N-(1-((2-chlorophenyl)carbamoyl)pyrrolidin-3-yl)-5-(1-methyl-1H-pyrazol-4-yl)nicotinamide], the IC50 was above 1000 nM.

In turn, `CC(=O)c1ccc(-c2ccc(C(=O)N3CC[C@@H](NC(=O)c4cc(-c5cnn(C)c5)cnc4N)C3)cc2)s1` [Example 538, (R)—N-(1-(4-(5-acetylthiophen-2-yl)benzoyl)pyrrolidin-3-yl)-2-amino-5-(1-methyl-1H-pyrazol-4-yl)nicotinamide] yielded an IC50 of 100 to 1000 nM.

In turn, `CN1CCN(Cc2ccc(C(=O)N3CC[C@@H](NC(=O)c4cc(-c5cnn(C)c5)cnc4N)C3)cc2)CC1` [Example 640, (R)-2-amino-5-(1-methyl-1H-pyrazol-4-yl)-N-(1-(4-((4-methylpiperazin-1-yl)methyl)benzoyl)pyrrolidin-3-yl)nicotinamide] showed an IC50 above 1000 nM.

In the case of `CCN1CCC[C@@H]1CNCc1ccc(-c2cccc(OC(=O)N3CC[C@@H](NC(=O)c4cc(-c5cnn(C)c5)cnc4N)C3)c2)cc1` [Example 314, 4′-(((((R)-1-ethylpyrrolidin-2-yl)methyl)amino)methyl)-[1,1′-biphenyl]-3-yl (R)-3-(2-amino-5-(1-methyl-1H-pyrazol-4-yl)nicotinamido)pyrrolidine-1-carboxylate], the IC50 lay within 100 to 1000 nM.

In the case of `Cn1cc(-c2cnc(N)c(C(=O)N[C@@H]3CCN(C(=O)Oc4cccc(C(=O)N5CCCCC5)c4)C3)c2)cn1` [Example 55, 3-(piperidine-1-carbonyl)phenyl (R)-3-(2-amino-5-(1-methyl-1H-pyrazol-4-yl)nicotinamido)pyrrolidine-1-carboxylate], the IC50 was above 1000 nM.

As for `Cn1cc(-c2ccc(C(=O)N3CC[C@@H](NC(=O)c4cc(-c5cnn(C)c5)cnc4N)C3)cc2)cn1` [Example 506, (R)-2-amino-5-(1-methyl-1H-pyrazol-4-yl)-N-(1-(4-(1-methyl-1H-pyrazol-4-yl)benzoyl)pyrrolidin-3-yl)nicotinamide], the IC50 was in the range of 100 to 1000 nM.

Take `Cn1cc(-c2cnc(N)c(C(=O)N[C@@H]3CCN(C(=O)Nc4ccc(C(F)(F)F)cc4)C3)c2)cn1` [Example 6, (R)-2-amino-5-(1-methyl-1H-pyrazol-4-yl)-N-(1-((4-(trifluoromethyl)phenyl)carbamoyl)pyrrolidin-3-yl)nicotinamide]: the IC50 is above 1000 nM.

`Cn1cc(-c2cnc(N)c(C(=O)N[C@@H]3CCN(C(=O)c4cccc(-c5cccc(Cl)c5)c4)C3)c2)cn1` [Example 479, (R)-2-amino-N-(1-(3′-chloro-[1,1′-biphenyl]-3-carbonyl)pyrrolidin-3-yl)-5-(1-methyl-1H-pyrazol-4-yl)nicotinamide] came in with an IC50 above 1000 nM.

`Cn1cc(-c2cnc(N)c(C(=O)N[C@@H]3CCN(C(=O)Oc4ccc(Cl)cc4C4CCCCC4)C3)c2)cn1` [Example 75, 4-chloro-2-cyclohexylphenyl (R)-3-(2-amino-5-(1-methyl-1H-pyrazol-4-yl)nicotinamido)pyrrolidine-1-carboxylate] came in with an IC50 above 1000 nM.

As usually defined, the IC50 is the concentration that gives 50% inhibition. High values mean lower potency, low ones higher potency.
